Marks after values point to notes of the source that are not given here.
Experiments:
[1] = test system: MDA-MB-468 breast subcutaneous flank xenografts; test: MDA-MB-468 breast flank xenograft model; assay type: in vivo, female nude mice; conditions: for Tumor Volume Day 38: mean ± SEM; for % ILS: median, time to 1 cc vs vehicle; for % T/C Day 38: treated vs vehicle
Protocol: (§1) Efficacy of N-[2-[(4-hydroxyphenyl)amino]-3-pyridyl]-4-methoxybenzenesulfonamide was tested in Calu-6 NSCL, MDA-MB-468 breast and HT-29 colon carcinoma xenografts grown in nude mice. The objectives were determination of the efficacy of N-[2-[(4-hydroxyphenyl)amino]-3-pyridyl]-4-methoxybenzenesulfonamide as a single agent and in combination with cisplatin in the Calu-6 NSCL flank xenograft model; determination the efficacy of N-[2-[(4-hydroxyphenyl)amino]-3-pyridyl]-4-methoxybenzenesulfonamide as a single agent and in combination with docetaxel in the MDA-MB 468 breast flank xenograft model; determination of the efficacy of N-[2-[(4-hydroxyphenyl)amino]-3-pyridyl]-4-methoxybenzenesulfonamide as a single agent and in combination with 5-FU in the HT-29 colon flank xenograft model; and comparison the efficacy of N-[2-[(4-hydroxyphenyl)amino]-3-pyridyl]-4-methoxybenzenesulfonamide administered on 2 different schedules (q.d. vs b.i.d.) in the Calu-6 and HT-29 xenogaft model.
(§2) Following inoculation of tumor cells, tumors were passaged three times in mice before using the fragments to generate single cell suspensions. Multiple animals were used as donors. Single cell suspensions were generated by homogenizing the minced tumor tissue in RPMI 1640 media. Cell suspensions were washed three times to remove debris and other foreign materials. Viable cells were counted by trypan blue exclusion technique using a hemocytometer. Mice were injected subcutaneously with 0.5 ml of the cell suspension containing 1×10^6 cells.
Efficacy of N-[2-[(4-hydroxyphenyl)amino]-3-pyridyl]-4-methoxybenzenesulfonamide in the MDA-MB-468 Breast Flank Xenograft Model. Tumor cells derived from serially passaged tumor fragments were inoculated s.c. in female nude mice on day 0. On day 10, mice bearing established tumors were size matched at ˜231 mm^3 and placed into the following groups:
(§3) N-[2-[(4-hydroxyphenyl)amino]-3-pyridyl]-4-methoxybenzenesulfonamide—100, and 75 mg/kg/day (p.o., q.d., 5 days on, 5 days off ×2)
N-[2-[(4-hydroxyphenyl)amino]-3-pyridyl]-4-methoxybenzenesulfonamide—50 and 0 mg/kg/day (p.o., q.d. ×21)
Docetaxel—40, 33.3, 16.7 and 0 mg/kg/day (i.v., qd ×1)

[2] = test system: HT-29 colon subcutaneous flank xenografts; test: HT-29 flank xenograft model; assay type: in vivo, nude mice; conditions: for Tumor Volume Day 38: mean ± SEM; for % ILS: median, time to 1 cc vs vehicle; for % T/C Day 38: treated vs vehicle
Protocol: as §1, §2
Tumor cells derived from serially passaged tumor fragments were inoculated s.c. in female nude mice on day 0. On day 10, mice bearing established tumors were size matched at ˜236 mm^3 and placed into the following groups:
1. N-[2-[(4-hydroxyphenyl)amino]-3-pyridyl]-4-methoxybenzenesulfonamide—100, and 75 mg/kg/day (p.o., q.d., 5 days on, 5 days off ×2)
2. N-[2-[(4-hydroxyphenyl)amino]-3-pyridyl]-4-methoxybenzenesulfonamide—50 and 0 mg/kg/day (p.o., q.d. ×21 or p.o., b.i.d. ×21)
Combination Therapy—100/30, 75/30, mg/kg/day (p.o., q.d., 5 days on, 5 days off ×2/ip, qd ×1), 50/10 mg/kg/day (p.o., q.d., ×21/ip, qd ×1).

[3] = Dose limiting toxicity in patients, 21-day QD or BID dosing; assay type: in vivo
Protocol: A total of 43 patients were enrolled in the study. The tumor types were as follows: colorectal (23), sarcoma (5), mesothelioma (3), salivary gland (2), endometrial (2), unknown (2), hepatoma (1), melanoma (1), renal cell (1), lung (1), ovary (1), and granulosa cell (1). Patients were treated once a day (QD) or twice a day (BID) for 21 days with N-[2-[(4-hydroxyphenyl)amino]-3-pyridyl]-4-methoxybenzenesulfonamide followed by a 7-day period where no drug was received. Doses were escalated by 50 mg/day (25 mg BID). Three patients were initially treated at each dose level. […] If additional patients experienced dose-limiting toxicity, on occasion the dose level was expanded to nine patients to further assess tolerability. Response assessment was performed every two cycles.

[4] = test system: Calu-6 lung subcutaneous flank xenografts; test: Calu-6 flank xenograft model; assay type: in vivo, male nude mice; conditions: for Tumor Volume Day 38: mean ± SEM; for % ILS: median, time to 1 cc vs vehicle; for % T/C Day 38: treated vs vehicle
Protocol: as §1, §2
Tumor cells were inoculated s.c. into male nude mice on day 0. On day 10, mice bearing established tumors were size matched at ˜233 mm^3 and placed into the following groups:
as §3
N-[2-[(4-hydroxyphenyl)amino]-3-pyridyl]-4-methoxybenzenesulfonamide—50 and 0 mg/kg/day (p.o., q.d. ×21 or p.o., b.i.d. ×21)
Cisplaitn—20, 10, 8 and 0 mg/kg/day (ip, qd ×1)
Combination Therapy—100/10, 75/10, 100/8 mg/kg/day (p.o., q.d., 5 days on, 5 days off ×2/ip, qd ×1), 50/10 mg/kg/day (p.o., q.d., ×21/ ip, qd ×1)

[5] = 75 mg/kg/day p.o., q.d., (5 days on, 5 days off) x2
[6] = 100 mg/kg/day p.o., q.d., (5 days on, 5 days off) x2
[7] = 100 and 75 mg/kg/day, 5 days on, 5 days off for 2 cycles

In the case of `COc1ccc(S(=O)(=O)Nc2cccnc2Nc2ccc(O)cc2)cc1` [N-[2-[(4-hydroxyphenyl)amino]-3-pyridyl]-4-methoxybenzenesulfonamide], the “Tumor Volume Day 38” value ([1]; 50 mg/kg/day p.o., q.d x21) is reported as 1244 ± 59 mm^3, the “% ILS” value ([1]; 50 mg/kg/day p.o., q.d x21) is reported as 41*** % and the “% T/C Day 38” value ([1]; 50 mg/kg/day p.o., q.d x21) is reported as 46*** %. The “Tumor Volume Day 38” value [1, 5] was 851 ± 55 mm^3, the “% ILS” value [1, 5] was 52*** % and the “% T/C Day 38” value [1, 5] was 33*** %. The “Tumor Volume Day 38” value [1, 6] was 638 ± 48 mm^3, the “% ILS” value [1, 6] was 78*** % and the “% T/C Day 38” value [1, 6] was 25*** %. The “antitumor activity as a single agent” value ([1]; 100 and 75 mg/kg/day 5 days on, 5 days off for 2 cycles, 50 mg/kg/day daily) was “dose-dependent antitumor activity”, the “efficacy of combination compared to single agents alone (summary)” value ([1]; in combination with docetaxel) was “equal to or greater than additive efficacy” and the “response in combination with docetaxel” value ([1]; in combination with docetaxel at 33.3 mg/kg/day, all three doses tested) was “greater than additive responses”. For the same compound, the “efficacy as a single agent (summary)” value ([1]; single agent) was “dose-dependent efficacy”, the “Tumor Volume Day 38” value ([2]; 50 mg/kg/day p.o., b.i.d x21) was 1158 ± 62 mm^3 and the “% ILS” value ([2]; 50 mg/kg/day p.o., b.i.d x21) was 36*** %. For the same compound, the “% T/C Day 38” value ([2]; 50 mg/kg/day p.o., b.i.d x21) was 51*** %, the “Tumor Volume Day 38” value ([2]; 50 mg/kg/day p.o., q.d x21) was 1244 ± 55 mm^3 and the “% ILS” value ([2]; 50 mg/kg/day p.o., q.d x21) was 36*** %. For the same compound, the “% T/C Day 38” value ([2]; 50 mg/kg/day p.o., q.d x21) was 55*** %, the “Tumor Volume Day 38” value [2, 5] was 942 ± 46 mm^3 and the “% ILS” value [2, 5] was 50*** %. The “% T/C Day 38” value [2, 5] was 43*** %, the “Tumor Volume Day 38” value [2, 6] was 619 ± 40 mm^3 and the “% ILS” value [2, 6] was 75*** %. The “% T/C Day 38” value [2, 6] was 28*** %, the “antitumor activity as a single agent” value [2, 7] was “significant antitumor activity” and the “efficacy of combination compared to single agents alone (summary)” value ([2]; in combination with 5-FU) was “equal to or greater than additive efficacy”. For the same compound, the “response in combination with 5-FU” value ([2]; in combination with 5-FU at 30 mg/kg/day, at the higher doses) was “additive responses”, the “efficacy q.d. vs b.i.d. (summary)” value ([2]; q.d. or b.i.d. for 21 days) was “equal efficacy” and the “efficacy as a single agent (summary)” value ([2]; single agent) was “dose-dependent efficacy”. The dose limiting toxicity ([3]; patients receiving up to 150 mg of drug per day) was “No dose limiting toxicity”, the “dose limiting toxicities observed” value ([3]; patients, QD or BID for 21 days followed by 7 days off) was “ileus, peripheral neuropathy, fatigue, and abdominal pain” and the “Tumor Volume Day 38” value ([4]; 50 mg/kg/day p.o., b.i.d x21) was 1534 ± 47 mm^3. The “% ILS” value ([4]; 50 mg/kg/day p.o., b.i.d x21) was 58*** %, the “% T/C Day 38” value ([4]; 50 mg/kg/day p.o., b.i.d x21) was 56*** % and the “Tumor Volume Day 38” value ([4]; 50 mg/kg/day p.o., q.d x21) was 1455 ± 65 mm^3. For the same compound, the “% ILS” value ([4]; 50 mg/kg/day p.o., q.d x21) was 58*** %, the “% T/C Day 38” value ([4]; 50 mg/kg/day p.o., q.d x21) was 54*** % and the “Tumor Volume Day 38” value [4, 5] was 1406 ± 65 mm^3. For the same compound, the “% ILS” value [4, 5] was 58*** %, the “% T/C Day 38” value [4, 5] was 50*** % and the “Tumor Volume Day 38” value [4, 6] was 1022 ± 48 mm^3. For the same compound, the “% ILS” value [4, 6] was 65*** %, the “% T/C Day 38” value [4, 6] was 37*** % and the “antitumor activity as a single agent” value [4, 7] was “significant antitumor activity”. For the same compound, the “efficacy of combination compared to single agents alone (summary)” value ([4]; in combination with cisplatin) was “equal to or greater than additive efficacy”, the “response in combination with cisplatin” value ([4]; in combination with cisplatin, all three doses tested) was “greater than additive responses” and the “efficacy q.d. vs b.i.d. (summary)” value ([4]; q.d. or b.i.d. for 21 days) was “equal efficacy”. The “efficacy as a single agent (summary)” value ([4]; single agent) was “dose-dependent efficacy”.
